In patent US20250017856A1, “CO-FORMULATION AND CO-DELIVERY OF IONIZABLE COLLOID FORMING DRUGS WITH NUCLEIC ACIDS” (THE GOVERNING COUNCIL OF THE UNIVERSITY OF TORONTO, priority 2023, published 2025):

Assay: RNA encapsulation efficiency (modified Quant-iT RiboGreen assay) and loading
Type: physicochemical
Settings: FxNP, siFLuc, DOPC
From the text: (§1) [NT] antisense (SEQ ID NO: 2): [NT] where “d” denotes a DNA base), siFLuc-2 (sense (SEQ ID NO: 3): [NT] antisense (SEQ ID NO: 4): [NT] where “d” denotes a DNA base and “m” indicates a 2'-O-methyl RNA base), sinLuc (sense (SEQ ID NO: 5): [NT] antisense SEQ ID NO: 6): [NT] where “d” denotes a DNA base), […]1 (sense (SEQ ID NO: 7): [NT] antisense (SEQ ID NO: 8): [NT] where “d” denotes a DNA base and “m” indicates a 2'-O-methyl RNA base), siNT (sense (SEQ ID NO: 9): [NT] antisense (SEQ ID NO: 10): [NT] where “d” denotes a DNA base and “m” indicates a 2'-O-methyl RNA base), mFLuc (EZ Cap Firefly Luciferase mRNA (5-moUTP), ApexBio), rRNA or RNA from Torula utilis yeast (T.U. RNA) was diluted in citrate buffer (50 or 25 mM, pH 4), malate buffer (25 mM, pH 4.0) or acetate buffer (25 mM, pH 4.0). A lipid/drug mix concentration of 5.5 mM was used with a total flow rate of 9 mL/min at a 3:1 ratio of aqueous to organic phase. […] After formulation, buffer exchange into PBS or Tris-buffered saline (TBS; pH 8.5) was performed using Amicon Ultra-4 centrifugal filters (molecular weight cut-off 10 kDa). Hydrodynamic diameter, polydispersity index (PDI), and scattering intensity were measured by dynamic light scattering (DLS) using a DynaPro Plate Reader II (Wyatt Technologies). The instrument was configured with a 60 mW 830 nm laser and a detector angle of 158°. A 25 μL sample of each formulation was pipetted into each well of a 384-well plate and measured with 20 acquisitions per sample at 25° C. […] Quant-iT RiboGreen reagent was added, and fluorescence intensity was quantified using a Tecan Infinite […] plate reader.

Structure (SMILES) | Encapsulation efficiency (%) | Small molecule drug mass % [%] | siRNA mass % [%]
CC12CCC3c4ccc(O)cc4CC(CCCCCCCCCS(=O)(CCCC(F)(F)C(F)(F)F)=NC(=O)CN4CCOCC4)C3C1CCC2O (stereo not shown) [7a] | 58.7 | 56.7 | 3.0
CC12CCC3c4ccc(O)cc4CC(CCCCCCCCCS(=O)(CCCC(F)(F)C(F)(F)F)=NC(=O)Cn4ccnc4)C3C1CCC2O (stereo not shown) [7b] | 81.7 | 55.4 | 4.2
CC12CCC3c4ccc(O)cc4CC(CCCCCCCCCS(=O)(CCCC(F)(F)C(F)(F)F)=NC(=O)CCn4ccnc4)C3C1CCC2O (stereo not shown) [7c] | 87.5 | 55.7 | 4.4
CC12CCC3c4ccc(O)cc4CC(CCCCCCCCCS(=O)(CCCC(F)(F)C(F)(F)F)=NC(=O)CCN4CCOCC4)C3C1CCC2O (stereo not shown) [7d] | 80.3 | 56.5 | 4.0

Same assay, conditions: FxNP, siFLuc, DSPC

Structure (SMILES) | Encapsulation efficiency (%) | Small molecule drug mass % [%] | siRNA mass % [%]
CC12CCC3c4ccc(O)cc4CC(CCCCCCCCCS(=O)(CCCC(F)(F)C(F)(F)F)=NC(=O)CN4CCOCC4)C3C1CCC2O (stereo not shown) [7a] | 69.9 | 56.3 | 3.6
CC12CCC3c4ccc(O)cc4CC(CCCCCCCCCS(=O)(CCCC(F)(F)C(F)(F)F)=NC(=O)Cn4ccnc4)C3C1CCC2O (stereo not shown) [7b] | 85.5 | 55.2 | 4.4
CC12CCC3c4ccc(O)cc4CC(CCCCCCCCCS(=O)(CCCC(F)(F)C(F)(F)F)=NC(=O)CCn4ccnc4)C3C1CCC2O (stereo not shown) [7c] | 89.3 | 55.6 | 4.5
CC12CCC3c4ccc(O)cc4CC(CCCCCCCCCS(=O)(CCCC(F)(F)C(F)(F)F)=NC(=O)CCN4CCOCC4)C3C1CCC2O (stereo not shown) [7d] | 88.3 | 56.3 | 4.4

Same assay, conditions: FxNP, sinLuc, DOPC

Structure (SMILES) | Encapsulation efficiency (%) | Small molecule drug mass % [%] | siRNA mass % [%]
CC12CCC3c4ccc(O)cc4CC(CCCCCCCCCS(=O)(CCCC(F)(F)C(F)(F)F)=NC(=O)CN4CCOCC4)C3C1CCC2O (stereo not shown) [7a] | 79.5 | 56.1 | 4.0
CC12CCC3c4ccc(O)cc4CC(CCCCCCCCCS(=O)(CCCC(F)(F)C(F)(F)F)=NC(=O)Cn4ccnc4)C3C1CCC2O (stereo not shown) [7b] | 84.9 | 55.3 | 4.4
CC12CCC3c4ccc(O)cc4CC(CCCCCCCCCS(=O)(CCCC(F)(F)C(F)(F)F)=NC(=O)CCn4ccnc4)C3C1CCC2O (stereo not shown) [7c] | 73.7 | 56.1 | 3.8
CC12CCC3c4ccc(O)cc4CC(CCCCCCCCCS(=O)(CCCC(F)(F)C(F)(F)F)=NC(=O)CCN4CCOCC4)C3C1CCC2O (stereo not shown) [7d] | 76.4 | 56.6 | 3.8

Assay: Hydrodynamic diameter and polydispersity index by dynamic light scattering
Type: physicochemical
Settings: FxNP, siFLuc, DOPC
From the text: as §1

Structure (SMILES) | Hydrodynamic diameter (nm) | PDI
CC12CCC3c4ccc(O)cc4CC(CCCCCCCCCS(=O)(CCCC(F)(F)C(F)(F)F)=NC(=O)CN4CCOCC4)C3C1CCC2O (stereo not shown) [7a] | 245.9 | 0.035
CC12CCC3c4ccc(O)cc4CC(CCCCCCCCCS(=O)(CCCC(F)(F)C(F)(F)F)=NC(=O)Cn4ccnc4)C3C1CCC2O (stereo not shown) [7b] | 289.8 | 0.003
CC12CCC3c4ccc(O)cc4CC(CCCCCCCCCS(=O)(CCCC(F)(F)C(F)(F)F)=NC(=O)CCn4ccnc4)C3C1CCC2O (stereo not shown) [7c] | 159.4 | 0.043
CC12CCC3c4ccc(O)cc4CC(CCCCCCCCCS(=O)(CCCC(F)(F)C(F)(F)F)=NC(=O)CCN4CCOCC4)C3C1CCC2O (stereo not shown) [7d] | 199.0 | 0.066

Same assay, conditions: FxNP, siFLuc, DSPC

Structure (SMILES) | Hydrodynamic diameter (nm) | PDI
CC12CCC3c4ccc(O)cc4CC(CCCCCCCCCS(=O)(CCCC(F)(F)C(F)(F)F)=NC(=O)CN4CCOCC4)C3C1CCC2O (stereo not shown) [7a] | 149.3 | 0.022
CC12CCC3c4ccc(O)cc4CC(CCCCCCCCCS(=O)(CCCC(F)(F)C(F)(F)F)=NC(=O)Cn4ccnc4)C3C1CCC2O (stereo not shown) [7b] | 141.0 | 0.019
CC12CCC3c4ccc(O)cc4CC(CCCCCCCCCS(=O)(CCCC(F)(F)C(F)(F)F)=NC(=O)CCn4ccnc4)C3C1CCC2O (stereo not shown) [7c] | 136.0 | 0.017
CC12CCC3c4ccc(O)cc4CC(CCCCCCCCCS(=O)(CCCC(F)(F)C(F)(F)F)=NC(=O)CCN4CCOCC4)C3C1CCC2O (stereo not shown) [7d] | 154.9 | 0.036

Same assay, conditions: FxNP, sinLuc, DOPC

Structure (SMILES) | Hydrodynamic diameter (nm) | PDI
CC12CCC3c4ccc(O)cc4CC(CCCCCCCCCS(=O)(CCCC(F)(F)C(F)(F)F)=NC(=O)CN4CCOCC4)C3C1CCC2O (stereo not shown) [7a] | 243.5 | 0.014
CC12CCC3c4ccc(O)cc4CC(CCCCCCCCCS(=O)(CCCC(F)(F)C(F)(F)F)=NC(=O)Cn4ccnc4)C3C1CCC2O (stereo not shown) [7b] | 296.2 | 0.012
CC12CCC3c4ccc(O)cc4CC(CCCCCCCCCS(=O)(CCCC(F)(F)C(F)(F)F)=NC(=O)CCn4ccnc4)C3C1CCC2O (stereo not shown) [7c] | 180.1 | 0.072
CC12CCC3c4ccc(O)cc4CC(CCCCCCCCCS(=O)(CCCC(F)(F)C(F)(F)F)=NC(=O)CCN4CCOCC4)C3C1CCC2O (stereo not shown) [7d] | 224.8 | 0.093

Assay: Zeta potential (Malvern Zetasizer)
Type: physicochemical
Settings: FxNP, siFLuc, DOPC
Method: Zeta potential was measured by diluting FXNPs in phosphate to an ion concentration of 1 mM and using a Malvern Zetasizer Nano ZS instrument.

Structure (SMILES) | Zeta potential (mV)
CC12CCC3c4ccc(O)cc4CC(CCCCCCCCCS(=O)(CCCC(F)(F)C(F)(F)F)=NC(=O)CN4CCOCC4)C3C1CCC2O (stereo not shown) [7a] | −11.27
CC12CCC3c4ccc(O)cc4CC(CCCCCCCCCS(=O)(CCCC(F)(F)C(F)(F)F)=NC(=O)Cn4ccnc4)C3C1CCC2O (stereo not shown) [7b] | −7.61
CC12CCC3c4ccc(O)cc4CC(CCCCCCCCCS(=O)(CCCC(F)(F)C(F)(F)F)=NC(=O)CCn4ccnc4)C3C1CCC2O (stereo not shown) [7c] | −8.02
CC12CCC3c4ccc(O)cc4CC(CCCCCCCCCS(=O)(CCCC(F)(F)C(F)(F)F)=NC(=O)CCN4CCOCC4)C3C1CCC2O (stereo not shown) [7d] | −8.00

Same assay, conditions: FxNP, siFLuc, DSPC

Structure (SMILES) | Zeta potential (mV)
CC12CCC3c4ccc(O)cc4CC(CCCCCCCCCS(=O)(CCCC(F)(F)C(F)(F)F)=NC(=O)CN4CCOCC4)C3C1CCC2O (stereo not shown) [7a] | −12.97
CC12CCC3c4ccc(O)cc4CC(CCCCCCCCCS(=O)(CCCC(F)(F)C(F)(F)F)=NC(=O)Cn4ccnc4)C3C1CCC2O (stereo not shown) [7b] | −12.50
CC12CCC3c4ccc(O)cc4CC(CCCCCCCCCS(=O)(CCCC(F)(F)C(F)(F)F)=NC(=O)CCn4ccnc4)C3C1CCC2O (stereo not shown) [7c] | −10.15
CC12CCC3c4ccc(O)cc4CC(CCCCCCCCCS(=O)(CCCC(F)(F)C(F)(F)F)=NC(=O)CCN4CCOCC4)C3C1CCC2O (stereo not shown) [7d] | −11.83

Same assay, conditions: FxNP, sinLuc, DOPC

Structure (SMILES) | Zeta potential (mV)
CC12CCC3c4ccc(O)cc4CC(CCCCCCCCCS(=O)(CCCC(F)(F)C(F)(F)F)=NC(=O)CN4CCOCC4)C3C1CCC2O (stereo not shown) [7a] | −11.80
CC12CCC3c4ccc(O)cc4CC(CCCCCCCCCS(=O)(CCCC(F)(F)C(F)(F)F)=NC(=O)Cn4ccnc4)C3C1CCC2O (stereo not shown) [7b] | −11.53
CC12CCC3c4ccc(O)cc4CC(CCCCCCCCCS(=O)(CCCC(F)(F)C(F)(F)F)=NC(=O)CCn4ccnc4)C3C1CCC2O (stereo not shown) [7c] | −10.97
CC12CCC3c4ccc(O)cc4CC(CCCCCCCCCS(=O)(CCCC(F)(F)C(F)(F)F)=NC(=O)CCN4CCOCC4)C3C1CCC2O (stereo not shown) [7d] | −14.27

Assay: not given
Settings: ionizable compound (fulvestrant analog); cited from earlier work

Structure (SMILES) | pKa
CC12CCC3c4ccc(O)cc4CC(CCCCCCCCCS(=O)(CCCC(F)(F)C(F)(F)F)=NC(=O)CN4CCOCC4)C3C1CCC2O (stereo not shown) [7a] | 5.1
CC12CCC3c4ccc(O)cc4CC(CCCCCCCCCS(=O)(CCCC(F)(F)C(F)(F)F)=NC(=O)Cn4ccnc4)C3C1CCC2O (stereo not shown) [7b] | 5.4
CC12CCC3c4ccc(O)cc4CC(CCCCCCCCCS(=O)(CCCC(F)(F)C(F)(F)F)=NC(=O)CCn4ccnc4)C3C1CCC2O (stereo not shown) [7c] | 5.5
CC12CCC3c4ccc(O)cc4CC(CCCCCCCCCS(=O)(CCCC(F)(F)C(F)(F)F)=NC(=O)CCN4CCOCC4)C3C1CCC2O (stereo not shown) [7d] | 5.7
